Measurements: paper PMC9186351, “Discovery of N-quinazolinone-4-hydroxy-2-quinolone-3-carboxamides as DNA gyrase B-targeted antibacterial agents” (Journal of Enzyme Inhibition and Medicinal Chemistry, 2022)
In brackets after ≈: the same amount, converted by molar mass. Where two headings read alike, the source gives them in different places.

What was measured:
[1] = system: methicillin-sensitive S. aureus (MSSA); assay: MIC by broth microdilution, MSSA isolates; type: cell-based; conditions: Staphylococcus aureus
Description: All of the bacterial strains used in this study were obtained from the Collection Centre of Pathogen Microorganism of Chinese Academy of Medical Sciences (CAMS-CCPM-A) in China. All of the isolates were stored at −80 °C and streaked on tryptic soy agar (TSA) plates to obtain overnight cultures. The MICs of the test compounds were determined by the broth microdilution method in accordance with the Clinical and Laboratory Standards Institute (CLSI) guidelines.[20] Cation-adjusted Mueller-Hinton broth (CAMHB) was used as the growth medium for MIC assays. Briefly, 100 μL of serially diluted compounds (starting concentrations were 64 μg/mL) in CAMH broth were added to the wells of 96-well microtiter plates. Then, 10 µL of 5 × 10^6 CFU/mL bacterial culture was added to each well. […] The MIC was defined as the lowest concentration of a compound that inhibited visual growth of the bacteria. Vancomycin was set as the positive control for this assay.

[2] = Mouse microsomal stability assay; type: in vitro ADME; conditions: mouse, microsomes, pH 7.4
Description: The mouse liver microsomes were purchased from BioreclamationIVT and stored at −80 °C. The working solutions (0.2 mM) of the control compound, i.e. dextromethorphan, and the test compound dissolved in DMSO were prepared. Terfenadine (5 ng/mL) and tolbutamide (10 ng/mL) dissolved in acetonitrile were used as two quenching solutions. NADPH was dissolved in the phosphate buffer (50 mM K2HPO4, pH 7.4) at 5 mM. The mouse liver microsomes were thawed at 37 °C. The concentration of the stock solution was 20 mg/mL. The working solution (0.629 mg/mL) was prepared by dilution in phosphate buffer.
The working solution of the control/test compound (1.5 µL) was mixed with the liver microsome working solution (238.5 µL) in a 96-well plate and pre-incubated at 37 °C for 5 min. The 5 mM NADPH working solution (60 µL) was added to the solution to initiate the metabolic reaction. At each time point (0, 5, 15, 30, and 60 for the control/test compound), 30 µL of the reaction mixture was sampled and moved to 300 µL of quenching solutions. When the sampling was done, each sample was centrifuged at 4000 rpm at 4 °C for 15 min. The supernatant was analysed with the same HPLC system as the plasma stability assay. The residues (%) of the test/control compound along with the incubation time were calculated based on which the half-life (t1/2) value was determined.

CCCCCc1nc2ccccc2c(=O)n1NC(=O)c1c(O)c2ccccc2n(CC)c1=O [f1, N-(4-oxo-2-pentylquinazolin-3(4H)-yl)-1-ethyl-4-hydroxy-2-oxo-1,2-dihydroquinoline-3-carboxamide]
MIC ([1]; ATCC 29213 / BAA-1708 / BAA-976 / MSSA, ATCC 29213, 15, 18-3, BAA976, BAA1708, span over isolates, read-out: MIC over the five MSSA isolates): 4 to 8 µg/mL (≈ 8.96 to 17.9 µM) | MIC ([1]; ATCC 29213 / MSSA, MSSA ATCC 29213, read-out: MIC): 4 µg/mL (≈ 8.96 µM) | MIC ([1]; BAA-976 / MSSA, MSSA BAA976, read-out: MIC): 4 µg/mL (≈ 8.96 µM) | MIC ([1]; BAA-1708 / MSSA, MSSA BAA1708, read-out: MIC): 4 µg/mL (≈ 8.96 µM) | MIC ([1]; MSSA, MSSA 15, read-out: MIC): 8 µg/mL (≈ 17.9 µM) | MIC ([1]; MSSA, MSSA 18-3, read-out: MIC): 4 µg/mL (≈ 8.96 µM) | half-life at 1 µM [2]: 24.5 min
